Measured values published in patent US20140099354A1, “BIOPASSIVATING MEMBRANE STABILIZATION BY MEANS OF NITROCARBOXYLIC ACID-CONTAINING PHOSPHOLIPIDS IN PREPARATIONS AND COATINGS” (priority 2011, published 2014).
pEC50: −log10 of the molar value. Like-named read-outs stand apart in the source and are kept apart here.

What was measured:
[1] = tested on: HeLa, HUVEC and L929 fibroblast; assay: cells; type: cell-based; conditions: for viability as quantified by the MTT assay: tested concentrations 10 μmol to 1 mmol, EC50 could not be calculated; for pEC50: after 48 hours
Procedure: (§1) Physiologically occurring phospholipids can be taken up by virtually all cell lines in large quantities. It is known that phospholipids that contain non-physiologically occurring fatty acid residues can cause cell lyses or death. Three cell lines (HeLa, HUVEC and L929 fibroblast) were cultured in a suitable culture medium of 5% FCS at 37° C. and 5% CO2 concentrations to a subconfluent concentration of 1.5×10^5 cells.
SOPC, DOPC, POPC, ONOPC, PNLPC, and the free fatty acids of OA, LA, NOOA, and NOLA were dissolved in 0.5% DMSO. […] Cell cultures were incubated for 24 h and 48 h. Thereafter, the culture medium was removed and the cells washed twice. Following this, cells suspensions were given in four vials to perform the following analysis:
For the determination of viability, phenol red was added to the suspended cells. After 4 h, the medium was renewed and 10 μl of the MTT solution was added. The cells were cultured for 4 hours, and then a 10% SDS solution was pipetted. After 24 h, absorption of formazan crystals was measured at 500 nm using a power wave X (bio-tek instruments, Inc., USA). For the quantitative comparison of toxicity, the EC50 was determined.

sciatic nerve = assay: Viability of cryopreserved nerve grafts (Annexin-V staining, FACS); type: cell-based, rats; conditions: 100 mmolar solution 1 hour; −30° C. 72 hours
cortical neurons = assay: Hypoxia and reperfusion of cortical neurons (viability, LDH)
Procedure: To determine whether the membrane-stabilizing properties of nitrated phospholipids can lead to attenuation of effects due to an ischemic event or the re-perfusion damage, cortical neurons and cardiac myocytes were investigated.
Freshly prepared cortex tissue was separated with Papain and tissue suspensions were cultured in culture vessels (Prim ARA; BD Biosciences, USA) with Neurobasal A/B27 medium (Invitrogen) for 10-12 days. Cell suspensions were divided, and replenished with suspensions of the natural phospholipids SOPC and PLPC, as well as the analogue phospholipids with nitration of unsaturated fatty acids (1-stearoyl-2-(9-nitrooleoyl)-sn-PC and 1-palmitoyl-2-(9-nitrolinoleoyl)-sn-PC) at concentrations of 10 to 50 μmol/l in NaCl (0.9%) were added. […] After 4 hours, the cells were washed three times with buffered saline and buffered NaCl solution with the addition of MgCl2 and CaCl2 in an anaerobic atmosphere (85% N2, 5% O2, 10% CO2; at 35° C.) for 10 and 30 minutes. Then, the cells were washed once and grown in culture medium under aerobic conditions for 24 hours. […] Cells were stained with annexin V-FITC and propidium iodide (Molecular probes, USA). The vital and necrotic cells were measured by flow cytometry (FACSCalibur, Becton & Dickinson). The volume of culture medium was determined and an aliquot was taken for determination of the LDH (lactate dehydrogenase) concentration.

[2] = tested on: HeLa, HUVEC and L929 fibroblast; assay: Cell viability with the live/dead assay; type: cell-based
Procedure: as §1
(§2) SOPC, DOPC, POPC, ONOPC, PNLPC, and the free fatty acids of OA, LA, NOOA, and NOLA were dissolved in 0.5% DMSO. Experiments were performed also with nitro-carboxylic acid-containing phospholipids according to examples N15-N20, G, O3, O5, P2, P5, P8, P9, P11 and Q. PL prepared as aqueous suspensions were added the culture flasks in order to achieve PL concentrations in the culture medium from 10 μmol to 1 mmol. Cell cultures were incubated for 24 h and 48 h. Thereafter, the culture medium was removed and the cells washed twice. Following this, cells suspensions were given in four vials to perform the following analysis:
Studies of cell viability were carried out with the live/dead assay (Molecular Probes). For this purpose, the cells were washed twice with PBS solution and then seeded into a culture medium. Incubation with the staining solution (in 0.1% DMSO) was carried out over 30 minutes in the dark. The viability analyses were performed using fluorescence microscopy.

[3] = tested on: HeLa, HUVEC and L929 fibroblast; assay: Volumetric measurement of cells (Coulter counter); type: cell-based; conditions: time-dependent increase after incubation
Procedure: as §1, §2
Volumetric measurement of cells was done in a Histopenz (Sigma) solution with an effective NaCl concentration of 0.9% (approximately 290 mOsm) heated to 37° C. in which the cells were suspended; thereafter the solution was sonified for 2 minutes. Measurements were done using a Coulter counter Z2.

[4] = tested on: Cardiac muscle cells derived from neonatal rat heart; assay: Hypoxia of cardiac muscle cells (viability, mitochondrial NAD+); type: cell-based; set-up: loss of viability of heart muscle cells after hypoxia: concentration or dose not given beside the values; conditions: for mitochondrial NAD+ content: hypoxia, baseline 5
Procedure: Cardiac muscle cells derived from neonatal rat heart (Nitobe J, et al, Reactive oxygene species regulate FLICE inhibitory protein and susceptibility to FAS-mediated apoptosis in cardiac myocytes. Cardiovasc RES 2003, 119-28). The heart muscle cells were cultured in Dulbecco/Eagle medium (DMEM) with 10% FCS added under standard conditions for two days. Incubation with the natural and nitrated phospholipids, as well as the hypoxia experiments were carried out as described above. Incubated cells were grown in culture medium under standard conditions for 24 hours. This is followed by a vitality staining as described above. […] The frozen cells were thawed up to -4° C. and homogenized for subsequent NAD^+ analyses. By means of differential centrifuge, pellets containing mitochondria were separated (Di Lisa, et al, 1993; Am. J. Physiol. 264, […]-[…]). The NAD^+ content was determined by fluoroscopy, and normalized to the protein content (Veloso, D., and […]., 1974;) Anal. Biochem., 449-450).

[5] = Abrasion stability and traction work load of coated balloon catheters; type: physicochemical
Procedure: Balloon catheters were coated by means of the Langmuir-Schaefer procedure where the balloon segment was aligned longitudinally and coaxial to the solution surface, dipping into the liquid for approx. 1 mm over the entire length. Then the catheter was slowly rotated around its axis 5 times. Phospholipids were dissolved at a concentration of 3 mmol in an ion-free aqueous solution at 50° C. The solution was cooled and given to the coating solution then. In case of incomplete dissolution of the phospholipids or if they separated when cooled, DMSO was added at a concentration of up to 20 vol.-%, preferably up to 10 vol.-%. After coating, the catheters were vacuum dried for 8 hours in order to remove residual solvent.
The tubing was filled with a 10% human albumin solution at a temperature of 35° C. The cable system, which had previously been brought through the tubing was connected to the catheter tip and tracked outside the tubing by reversing pulleys, which allowed exactly vertically traction of the cable that was connected to a motorized winch. The winch was mounted on a digital precision balance. The catheters mounted in this manner were pulled through the tubing system and the weight changes measured by the balance, which represented the traction work load achieved for the passage of the catheter, was recorded continuously. These readings were integrated over time. The resultant values allow estimation of the total shear force that occurred during the passage of the catheter through the tubing system.
The abrasion or loss of coating layers was determined by weighing the catheter before and after coating as well as after the mechanical stability test in the tubing system as described above using a high precision balance.

[6] = Tissue response to coated silicone implants in vivo after bleomycin; set-up: species or system Wistar rats; conditions: silicone cushions, subcutaneous, 7 to 90 days
Procedure: Induction of fibrotic tissue production by connective tissue activation as a consequence of implantation of foreign material was examined in an in-vivo animal model. As implant materials, sterile silicone cushions having a diameter of 1 cm were used.
In male Wistar rats (190-240 g) that were fed and housed under identical conditions for one week, general anaesthesia was performed by intramuscular injection of 0.008 mL/100 g ketamine and 0.004 mL/100 g xylocaln chloride 2%. Then the back of the animals was shaved, sterilized and infiltrated with xylocalne chloride. A paravertebral incision was made on both sides with a length of 1.5 cm followed by preparation of the subcutaneous tissue, so that on both sides approx. 2×2 cm cavities were preformed. Hemostasis was achieved by cauterization, if necessary. Then balls of cotton saturated with Bleomycin (cell-pharm GmbH, Hannover, Germany: 1% in 0.9% NaCl solution) were inserted into the cavities for 3 minutes and then removed. Without rinsing the cavities, the implants coated with a nitrated phospholipid were inserted into the cavity on the left side and the implants coated with natural phospholipid into the cavity on the right side. Thereafter, a layer by layer wound closure was performed and a sterile adhesive bandage was applied.
The animals were kept according to standard conditions for 7, 14, 30, 60 and 90 days. At any study time endpoint, two animals were euthanized. After death the well visible and palpable implants were removed using en-block resection technique. The resected specimens were fixed and embedded in paraffin. Then they were cut in half and the liquid silicone was removed. The specimens were embedded again and cut into thin slices which were stained with H & E and Sirius red, and evaluated by light microscopy. Evaluation was done according to the following criteria:
A1: none; A2: occasional monocytic cells or lymphocytes; A3: moderate numbers or groups of monocytic cells or lymphocytes; A4: dense infiltration of monocytes, eosinophils, or giant cells.
B1: none; B2: collagen-rich layer around the implant; B3: thick (>1 mm) and dense collagen-rich tissue formation around the implant.
In every 10th serial section 10 fields of view uniformly distributed over the circumference of the implant were evaluated and the herein predominant expression was assigned to an event table. In total, 200 fields of view were analyzed per implant

TRPV1, 2 and 4, TRPA1 = assay: Inducible ion current of TRP receptors in Xenopus oocytes (voltage clamp); type: cell-based, rat; conditions: 50 mmol/l, 10 and 60 minutes
Procedure: An established in-vitro model of Xenopus oocytes (Dascal N, 1987 The use of Xenopus oocytes. CRC critical reviews in biochemistry 22, 317-387) was used to study the influence of incubation with PL on ion channels regulated by membrane receptors. Defolliculized oocytes were transfected with cRNA (rat) of TRPV1, 2 and 4, as well as of TRPA1, stored in tissue culture plates and incubated in culture medium (ND 96) at 15° C. under constant motion in the incubator for 7 to 10 days.
Induced leakage currents through activation of the TRP receptors was determined by means of double electrode voltage-clamp technique (Ahern G P, Brooks I M, Miyares R L &Wang X B, 2005, Extracellular cations sensitize and gate capsaicin receptor TRPV1 modulating pain signalling. J Neurosci 25, 5109-5116). Ooocytes were probed with borosilicate glass capillaries (Clark) and connected to a feedback amplifier (Gene clamp Amplifier, Axon instruments). The membrane potential of oocytes was clamped to −60 or −90 mV. The presence of a directive […] current was compared to non-transfected controls. The investigations were performed in a miniature organ bath in calcium-free buffered (Hepes, pH 7.3) NaCl solution. The TRPV1 receptor excitation was initiated by rapidly changing of the bath solution against a capsaicin solution (10 μmol). Results of non-pretreated oocytes were used for normative comparison of subsequent measurements of incubatesd cells. Investigations with incubated cells were carried out in the same way for oocytes transfected with the TRPV2, and TRPV4 and TRPA1 receptors, wherein the receptor agonists cannabidiol (10 μmol) and 4α-PDD (4α-phorbol 12,13-didecanoate, 50 μmol) and innamaldehyde (50 μmol) were used instead of capsaicin.

[7] = tested on: Heart muscle cells from rabbit hearts; assay: Cytosolic Ca2+ concentration in heart muscle cells (fluo-4 fluorescence); type: cell-based
Procedure: Heart muscle cells were taken from rabbit hearts according to a method described elsewhere (Shannon T R, Ginsburg K S, Bers D M. Quantitative assessment of the SRCa^2+ leak-load relationship. Circ Res. 2002; 91:594-600). The prepared cells were cultured for 72 hours.
The cytosolic Ca^2+ concentrations were determined with fluo-4 fluorescence. Therefore the cells were incubated with 10 μmol fluo-4 AM (1%) for 30 minutes and washed thereafter three times with PBS. The cells were stimulated in a Tryode solution on a platinum electrode with a frequency of 0.5 Hz over 20 cycles. Then the ambient medium was changed and an electrolyte-free colloidal solution was added. Determination of the Ca concentration was performed after each series of stimulation over 20 cycles. Calcium content was estimated by the use of confocal laser scanning microscopy (Olympus). At least 10 cells per experiment were evaluated in a post-systolic interval of 1000 ms. The measurements were repeated at least three times. β-adrenergic stimulation was performed with 250 nmol/L isoproterenol, which was given to the medium.

ovarian tissue strips [8] = assay: Cryopreservation of ovarian tissue strips: 17 β-estradiol and progesterone (radio-immuno assay); type: cell-based, sheep; conditions: after cryopreservation and culture
Procedure: (§3) Ovar ectomy was performed in female sheep; resected tissues were cut into 60 ovarian tissue strips. The ovarian strips were either cultured directly (n=4) or prepared with a usual solution for vitrification (VS group; Vitrification Kit, Sage, USA) or incubated with nitrated PLs (NPL group). For this purpose, the tissue strips were bathed in an equibrilation solution (ART-8025-A) which consisted of MOPS-buffered amino acids and gentamicin sulfate (10 mg/l), and 7.5% (v/v) of each DMSO and ethylene glycol and 12 mg/ml human serum albumin for 30 minutes. Thereafter the strips of the VS group were placed in the vitrification solution (ART-8025-B), which is a MOPS-buffered solution containing amino acids and gentamicin sulfate, that contain 15% (v/v) each DMSO and ethylenglycol, 12 mg/ml human albumin and 0.6 M sucrose. The strips of the NPL group were placed in a solution containing 25% (v/v) nitrated PL SNOPC or PNLPC in a PBS-buffered 1% DMSO solution containing 5% human albumin for 60 minutes. The treated tissue strips were then immersed into liquid nitrogen and kept here for 14 days. Then removal and warming of the tissue pieces was performed in AIM-V medium (Gibco, Invitrogen) in a sterile culture dish, first up to 5° C. within 20 minutes, then heated further in a water bath up to 37° C., within the following 60 minutes. The culture medium was replaced and specimens cultured for 14 days. After this, the tissue pieces were fixed, embedded in paraffin and cut, followed by histological examination. […] The total number of intact follicles in the control group was taken as a reference to the number of follicles in the cryopreserved groups.
(§4) The culture medium has been exchanged by every 2nd day; samples for hormone analysis were taken and frozen at that time. Determination of 17 β-estradiol and progesterone were performed with a radio-immuno assay (diagnostic systems laboratories, USA).

ovarian tissue strips [9] = assay: Cryopreservation of ovarian tissue strips: intact follicles; conditions: liquid nitrogen 14 days, cultured 14 days
Procedure: as §3, §4

[10] = for the different cell lines, read-out: EC50 concentration (MTT assay)

With CCCCCCCC/C=C\CCCCCCCC(=O)O[C@H](COC(=O)CCCCCCCCCCCCCCCCC)COP(=O)([O-])OCC[N+](C)(C)C [SOPC, 1-Stearoyl-2-oleoyl-sn-glycero-3-PC, reference compound] the “viability as quantified by the MTT assay” value [1] was “only slightly decreased”, the “proportion of living cells relative to non-frozen control” value (sciatic nerve) was 26% and the “increase in LDH versus normoxemia culture” value (cortical neurons; 10-minutes ischemia) was 280 fold. The “viability of cortical cells measured after 24 hours” value (from here on “viability of cortical cells”) (cortical neurons; 10-minutes ischemia) was 33%, the “increase in LDH versus normoxemia culture” value (cortical neurons; 30-minutes ischemia) was 640 fold and the “viability of cortical cells” value (cortical neurons; 30-minutes ischemia) was 0%. For the same compound, the “viability according to the live/dead staining” value [2] was “high rate of viability”, the “cell volume (increase in size to)” value [3] was 150% and the “loss of viability of heart muscle cells after hypoxia” value (shortened to “loss”) ([4]; (10 minutes)) was 14%. For the same compound, the “loss” value ([4]; (30 minutes)) was 40%, the “mitochondrial NAD+ content” value ([4]; first printed value) was 3.0 nmol/mg protein and the “mitochondrial NAD+ content” value ([4]; second printed value) was 1.1 nmol/mg protein.

For CCCCCCCC/C=C(\CCCCCCCC(=O)OC[C@H](COP(=O)([O-])OCC[N+](C)(C)C)OC(=O)CCCCCCC/C(=C\CCCCCCCC)[N+](=O)[O-])[N+](=O)[O-] [Example B, 1,2-di-(9-nitrooleoyl)-sn-3-glycerophosphocholine], the “mechanical removal of coating substance and workload to pull the catheter through PTFE tubing” value [5] was “Very similar results”, the “proportion of living cells relative to non-frozen control” value (sciatic nerve) was 83% and the “biocompatibility of coated implants compared to natural PLs” value [6] was “improved biocompatibility of implants several-fold”. The “inducible membrane channel activity of TRP channels” value (from here on “inducible membrane channel activity”) (TRPV1, 2 and 4, TRPA1) was “significant decrease of inducible membrane channel activity”.

With CCCCCCCC/C=C\CCCCCCCC(=O)OC[C@H](COP(=O)([O-])OCC[N+](C)(C)C)OC(=O)CCCCCCC/C=C\CCCCCCCC [DOPC, 1,2-dioleoyl-sn-glycero-3-PC] the “viability as quantified by the MTT assay” value [1] was “only slightly decreased”, the “viability according to the live/dead staining” value [2] was “high rate of viability” and the “cell volume (increase in size to)” value [3] was 180%.

For CCCCCCCC/C=C(\CCCCCCCC(=O)O)[N+](=O)[O-] [nitro oleic acid, E-9-nitrooleic acid], the pEC50 [1, 10] was 4.30 to 5.00 and the “cell volume (increase in size to)” value [3] was 140%.

In the case of CCCCC/C=C\C/C=C(\CCCCCCCC(=O)O)[N+](=O)[O-] [nitro-linoleic acid, E-9-nitrolinoleic acid], the pEC50 [1, 10] was 4.00 to 4.30 and the “cell volume (increase in size to)” value [3] was 120%.

For CCCCC/C=C\CC=C(CCCCCCCC(=O)O[C@H](COC(=O)CCCCCCCCCCCCCCC)COP(=O)([O-])OCC[N+](C)(C)C)[N+](=O)[O-] [Example P7, 1-palmitoyl-2-(9-nitrolinoleoyl)-sn-3-glycerophosphocholine], the “total viability (MTT assay)” value [1] was 75%, the pEC50 ([1]; range over cell lines, read-out: EC50 (MTT assay)) was 2.41 to 3.40 and the “end of diastole (ED) cytosolic calcium” value ([7]; after hypoxia) was 70 nmol/L. The “post systolic (PS) cytosolic calcium” value ([7]; after hypoxia) was 30 nmol, the “end of diastole (ED) cytosolic calcium” value ([7]; after hypoxia and stimulation with isoproterenol) was 100 nmol/L and the “end of diastole (ED) cytosolic calcium” value ([7]; normoxic conditions) was 30 nmol/L. For the same compound, the “post systolic (PS) cytosolic calcium” value ([7]; normoxic conditions) was 10 nmol, the “increase in LDH versus normoxemia culture” value (cortical neurons; 10-minutes ischemia) was 130 fold and the “viability of cortical cells” value (cortical neurons; 10-minutes ischemia) was 70%. For the same compound, the “increase in LDH versus normoxemia culture” value (cortical neurons; 30-minutes ischemia) was 290 fold, the “viability of cortical cells” value (cortical neurons; 30-minutes ischemia) was 52% and the “biocompatibility of coated implants compared to natural PLs” value [6] was “improved biocompatibility of implants several-fold”. For the same compound, the estradiol (ovarian tissue strips [8]) was 8.3 ng/mL, the progesterone (ovarian tissue strips [8]) was 0.4 ng/mL and the “rate of intact follicles relative to the control group” value (ovarian tissue strips [9]) was 98%. For the same compound, the “loss” value ([4]; (10 minutes)) was 5%, the “loss” value ([4]; (30 minutes)) was 18% and the “mitochondrial NAD+ content” value ([4]; first printed value) was 3.6 nmol/mg protein. For the same compound, the “mitochondrial NAD+ content” value ([4]; second printed value) was 3.1 nmol/mg protein and the “inducible membrane channel activity” value (TRPV1, 2 and 4, TRPA1) was “significant decrease of inducible membrane channel activity”.

In the case of CCCCC/C=C\C/C=C\CCCCCCCC(=O)O [linoleic acid, Linoleic acid], the pEC50 [1, 10] was 3.59 to 3.62 and the “cell volume (increase in size to)” value [3] was 170%.

With CCCCCCCC/C=C(\CCCCCCCC(=O)OC[C@H](COP(=O)(O)OCCN)OC(=O)CCCCCCC/C(=C\CCCCCCCC)[N+](=O)[O-])[N+](=O)[O-] [Example D, 1,2-di-(9-nitrooleoyl)-sn-3-glycero-phosphatidylethanolamine] the “mechanical removal of coating substance and workload to pull the catheter through PTFE tubing” value [5] was “Very similar results”, the “proportion of living cells relative to non-frozen control” value (sciatic nerve) was 89% and the “biocompatibility of coated implants compared to natural PLs” value [6] was “improved biocompatibility of implants several-fold”. The “inducible membrane channel activity” value (TRPV1, 2 and 4, TRPA1) was “significant decrease of inducible membrane channel activity”.

With CCCCCCCC/C=C\CCCCCCCC(=O)O [oleic acid, Oleic acid] the pEC50 [1, 10] was 3.59 to 3.74 and the “cell volume (increase in size to)” value [3] was 200%.
